Laboratory results published in patent US7423172B2 (Laboratorios Salvat, S.A., priority 2004, dated 2008).

Tests used:
[1] = target: T1, GST-hPPARγ2 (Homo sapiens, UniProt P37231); experiment: PPARγ2 binding assay ([3H]BRL-49853 displacement); details: GST-hPPARγ2, [3H]BRL-49853 100 nM, 3 h at 4° C.; read-out: Affinity PPARγ
T1 construct: the complete cDNA of the human PPAR was cloned into pGEX4T2; made in house; host or cells: Escherichia coli BL21 (DE3)
T1 sequence (P37231 1-505): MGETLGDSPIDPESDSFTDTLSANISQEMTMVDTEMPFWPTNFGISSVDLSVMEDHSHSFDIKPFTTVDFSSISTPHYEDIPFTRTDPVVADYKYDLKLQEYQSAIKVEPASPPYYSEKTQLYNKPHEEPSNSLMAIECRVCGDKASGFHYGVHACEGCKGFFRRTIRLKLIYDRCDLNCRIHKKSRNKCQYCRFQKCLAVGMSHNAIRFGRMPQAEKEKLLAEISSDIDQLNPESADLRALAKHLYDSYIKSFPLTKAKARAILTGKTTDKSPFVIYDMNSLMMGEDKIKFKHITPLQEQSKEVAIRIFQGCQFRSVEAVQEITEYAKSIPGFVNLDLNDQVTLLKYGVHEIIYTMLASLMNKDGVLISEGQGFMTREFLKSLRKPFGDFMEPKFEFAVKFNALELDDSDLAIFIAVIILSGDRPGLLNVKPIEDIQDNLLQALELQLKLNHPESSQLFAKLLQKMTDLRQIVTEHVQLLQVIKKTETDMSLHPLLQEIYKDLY
Method: The cDNA encoding for the open reading frame of the hPPARγ2 was amplified by PCR (polymerase chain reaction) and inserted in the plasmid pGEX-4T-2. This construction (pGEX-hPPARγ) was introduced into E. coli where it was overexpressed and semipurified as a fusion protein with glutathione S-transferase (GST) (Elbrecht et al., J. Biol. Chem. 1999, 274, 7913-7922). The binding of the compounds to the GST-hPPARγ2 s was determined by modifications in the method described by Lehmann et al. (J. Biol. Chem. 1995, 270, 12953-12957). The receptors (2.5 μg) were incubated in 96-well plates in the presence or in the absence of the products with [^3H]BRL-49853 (100 nM) for 3 h at 4° C., in a final volume of 200 μL of buffer Tris-HCl 10 mM pH:8.0, containing KCl 50 mM and DTT 10 mM. Non-specific binding was determined in the presence of BRL49853 100 μM. The reaction mixture was transferred to a Multiscreen Durapore (Millipore) microplate containing glutathione-Sepharose 4B in every well. The reaction mixture was left to incubate with the resin during 10 min, and then centrifuged at 735 g during 2 min. To dissociate the receptor bound to the resin, reduced glutathione 10 mM is added and incubated during 10 min. The receptor was eluted by centrifugation. Then, scintillation liquid was added to the elution and the contained radioactivity was quantified by liquid scintillation spectroscopy (Microbeta Wallac, Perkin Elmer).
The human PPAR cDNA was amplified through RT-PCR. For hPPARγ2, RNA was obtained from human white adipose tissue. Each amplified fragment was cloned into pBluescript (Stratagene®) and sequenced. One clone for each construction was selected and used as template for further subcloning and PCR amplifications.
GST-Fused Protein Construction
To generate this chimeric protein, the complete cDNA of the human PPAR was cloned into pGEX4T2 (Amersham Biosciences). The fragment was obtained from the pBluescript-cDNAs clones digested with endonucleases. To assess the plasmid identity and to ensure the in-phase cloning of the proteins, pGEX construction was sequenced. GST-hPPARγ2 fusion protein was generated in Escherichia coli (BL21 strain DE3). Cells were cultured in LB medium to a density of A600=1.6 odu, and induced for overexpression by addition of isopropyl-1-thio-β-D-galactopyranoside (IPTG)-induced cultures to a final concentration of 0.5 mM. The IPTG-induced cultures were grown at room temperature o/n, before cells were harvested by centrifugation at 5000 g for 15 min. After sonication, the GST-fusion protein was purified from the cell pellet using glutathione-Sepharose beads, following the procedure recommended by the manufacturer (Amersham Pharmacia Biotech). Excess of gluthatione was removed o/n by dyalisis at 4° C. Receptor purity was visualized by SDS-PAGE and protein content was determined by Bradford method. Receptor aliquots were stored at −80° C. until use.

[2] = target: T2, GAL4 DNA binding domain fused to the PPARγ LBD (Homo sapiens, UniProt P37231); experiment: LBD-hPPARs transactivation assay (GAL4-luciferase reporter in COS-7 cells); format: cell-based; details: 48 h
T2 construct: expressed in transfected cells; host or cells: COS-7
T2 sequence (P37231 238-503 limits assumed): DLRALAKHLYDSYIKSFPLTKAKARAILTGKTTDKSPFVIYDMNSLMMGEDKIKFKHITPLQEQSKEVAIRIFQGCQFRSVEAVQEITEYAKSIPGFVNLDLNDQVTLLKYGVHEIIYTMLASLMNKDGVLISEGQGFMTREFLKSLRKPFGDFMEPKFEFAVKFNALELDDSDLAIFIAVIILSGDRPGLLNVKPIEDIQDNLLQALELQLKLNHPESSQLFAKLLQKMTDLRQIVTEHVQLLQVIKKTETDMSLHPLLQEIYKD
Text: LBD-hPPARs Transactivation Assay
COS-7 cells were cultivated in 24-well plates and transfected with the pFACMV plasmids that encode the chimeric proteins containing the GAL4 DNA binding domain fused to the PPARγ LBD. The reporter plasmid for the foregoing constructions was pFR-Luc, which contains five repetitions of the GAL4-response element in front of a promoter that controls the transcription of the luciferase gene. Lipofectamine was used as a transfection agent. The plasmids of the chimeric receptors and the reporter gene were inserted in the cells by transitory transfection in COS-7 cells in culture.

SMILES: C=CC(=O)N(CCCOc1ccc(C[C@H](Nc2ccccc2C(=O)c2ccccc2)C(=O)O)cc1)c1ccc(Cl)cc1 [I_128, (S)-3-(4-{3-[Acryloyl-(4-chlorophenyl)-amino]propoxy}phenyl)-2-(2-benzoylphenylamino)propionic acid]
- Ki [1]: 500 to 1500 nM

SMILES: Cc1ccc(N(CCOc2ccc(C[C@H](Nc3ccccc3C(=O)c3ccccc3)C(=O)O)cc2)C(=O)C(C)C)cc1 [I_149, (S)-2-(2-Benzoylphenylamino)-3-{4-[2-(isobutyryl-p-tolylamino)ethoxy]-phenyl}propionic acid]
- Ki [1]: > 1500 nM

SMILES: O=C(c1ccccc1)c1ccccc1N[C@@H](Cc1ccc(OCCCN(Cc2ccccc2)C(=O)C#Cc2ccccc2)cc1)C(=O)O [I_178, (S)-2-(2-Benzoylphenylamino)-3-(4-{3-[benzyl-(3-phenylpropynoyl)amino]-propoxy}phenyl)propionic acid]
- Ki [1]: < 500 nM

SMILES: CC(C)(C)N(CCOc1ccc(C[C@H](Nc2ccccc2C(=O)c2ccccc2)C(=O)O)cc1)C(=O)C1CCC1 [I_375, (S)-2-(2-Benzoylphenylamino)-3-{4-[2-(tert-butylcyclobutanecarbonylamino)-ethoxy]phenyl}propionic acid]
- Ki [1]: < 500 nM
- Functional activity PPARγ [2]: PARTIAL AGONIST

SMILES: O=C(c1ccccc1)c1ccccc1N[C@@H](Cc1ccc(OCCCN(CC2CC2)C(=O)C2CCCC2)cc1)C(=O)O [I_280, (S)-2-(2-Benzoylphenylamino)-3-{4-[3-(cyclopentanecarbonylcyclopropylmethylamino)propoxy]phenyl}propionic acid]
- Ki [1]: < 500 nM

SMILES: O=C(c1ccccc1)c1ccccc1N[C@@H](Cc1ccc(OCCN(Cc2cccs2)c2ccccc2)cc1)C(=O)O [I_467, (S)-2-(2-Benzoylphenylamino)-3-{4-[2-(phenylthiophen-2-ylmethylamino)-ethoxy]phenyl}propionic acid]
- Ki [1]: < 500 nM

SMILES: Cc1ccccc1N(CCOc1ccc(C[C@H](Nc2ccccc2C(=O)c2ccccc2)C(=O)O)cc1)CC1CCC1 [I_412, (S)-2-(2-Benzoylphenylamino)-3-{4-[2-(cyclobutylmethyl-o-tolylamino)-ethoxy]phenyl}propionic acid]
- Ki [1]: < 500 nM

SMILES: COc1cccc(CN(CCCOc2ccc(C[C@H](Nc3ccccc3C(=O)c3ccccc3)C(=O)O)cc2)c2ccccc2)c1 [I_391, (S)-2-(2-Benzoylphenylamino)-3-(4-{3-[(3-methoxybenzyl)phenylamino]-propoxy}phenyl)propionic acid]
- Ki [1]: 500 to 1500 nM

SMILES: COCCC(=O)N(CCOc1ccc(C[C@H](Nc2ccccc2C(=O)c2ccccc2)C(=O)O)cc1)Cc1ccccc1 [I_469, (S)-2-(2-Benzoylphenylamino)-3-(4-{2-[benzyl-(3-methoxypropionyl)-amino]ethoxy}phenyl)propionic acid]
- Ki [1]: 500 to 1500 nM

SMILES: O=C(c1ccccc1)c1ccccc1N[C@@H](Cc1ccc(OCCN(C(=O)c2cc3ccccc3cn2)c2ccccc2)cc1)C(=O)O [I_303, (S)-2-(2-Benzoylphenylamino)-3-(4-{2-[(isoquinoline-3-carbonyl)-phenylamino]ethoxy}phenyl)propionic acid]
- Ki [1]: < 500 nM

SMILES: O=C(c1ccccc1)c1ccccc1N[C@@H](Cc1ccc(OCCN(CC2CC2)C(=O)C=Cc2cccs2)cc1)C(=O)O [I_265, (S)-2-(2-Benzoylphenylamino)-3-(4-{2-[cyclopropylmethyl-(3-thiophen-2-ylacryloyl)amino]ethoxy}phenyl)-propionic acid]
- Ki [1]: < 500 nM
- Functional activity PPARγ [2]: AGONIST

SMILES: CCC(=O)N(CCOc1ccc(C[C@H](Nc2ccccc2C(=O)c2ccccc2)C(=O)O)cc1)c1ccc(Cl)cc1 [I_121]
- Ki [1]: 500 to 1500 nM
- Functional activity PPARγ [2]: ANTAGONIST

SMILES: C/C=C/C(=O)N(CCOc1ccc(C[C@H](Nc2ccccc2C(=O)c2ccccc2)C(=O)O)cc1)c1cccc(SC)c1 [I_440, (S)-2-(2-Benzoylphenylamino)-3-(4-{2-[but-2-(E)-enoyl-(3-methylsulfanylphenyl)amino]ethoxy}-phenyl)propionic acid]
- Ki [1]: 500 to 1500 nM

SMILES: O=C(c1ccccc1)c1ccccc1N[C@@H](Cc1ccc(OCCCN(Cc2ccccc2)C(=O)Cc2cccnc2)cc1)C(=O)O [I_198, (S)-2-(2-Benzoylphenylamino)-3-(4-{3-[benzyl-(2-pyridin-3-ylacetyl)-amino]propoxy}phenyl)propionic acid]
- Ki [1]: 500 to 1500 nM
- Functional activity PPARγ [2]: PARTIAL AGONIST

SMILES: O=C(c1ccccc1)c1ccccc1N[C@@H](Cc1ccc(OCCCN(Cc2ccccc2)CC2CC2)cc1)C(=O)O [I_418, (S)-2-(2-Benzoylphenylamino)-3-{4-[3-(benzylcyclopropylmethylamino)-propoxy]phenyl}propionic acid]
- Ki [1]: 500 to 1500 nM
- Functional activity PPARγ [2]: PARTIAL AGONIST

SMILES: O=C(c1ccccc1)c1ccccc1N[C@@H](Cc1ccc(OCCCN(CC2CC2)C(=O)Cc2ccccc2)cc1)C(=O)O [I_262, (S)-2-(2-Benzoylphenylamino)-3-{4-[3-(cyclopropylmethylphenylacetylamino)propoxy]phenyl}propionic acid]
- Ki [1]: < 500 nM
- Functional activity PPARγ [2]: AGONIST

SMILES: O=C(c1ccccc1)c1ccccc1N[C@@H](Cc1ccc(OCCN(Cc2ccccc2F)c2ccccc2Cl)cc1)C(=O)O [I_379, (S)-2-(2-Benzoylphenylamino)-3-(4-{2-[(2-chlorophenyl)-(2-fluorobenzyl)-amino]ethoxy}phenyl)propionic acid]
- Ki [1]: 500 to 1500 nM

SMILES: Cc1cccc(N(CCCOc2ccc(C[C@H](Nc3ccccc3C(=O)c3ccccc3)C(=O)O)cc2)CC(C)C)c1 [I_410, (S)-2-(2-Benzoylphenylamino)-3-(4-{3-[isobutyl-m-tolylamino]propoxy}-phenyl)propionic acid]
- Ki [1]: < 500 nM
- Functional activity PPARγ [2]: ANTAGONIST

SMILES: CC(=O)N(CCOc1ccc(C[C@H](Nc2ccccc2C(=O)c2ccccc2)C(=O)O)cc1)c1ccc2ccccc2c1 [I_438, (S)-3-{4-[2-(Acetylnaphthalen-2-ylamino)ethoxy]phenyl}-2-(2-benzoylphenylamino)propionic acid]
- Ki [1]: 500 to 1500 nM
